Values after ≈ are worked out from the molar mass of the structure shown. Like-named read-outs stand apart in the source and are kept apart here.

3 compounds from patent US4247687A, “Aminoglycoside antibiotic derivatives and process for their preparation” (Farmitalia Carlo Erba S.p.A., priority 1979, dated 1981) can be followed below.

What all share (type): cell-based
The test system of one test is P. sp. V 16. Nature of the test: Conventional agar dilution, MIC. The procedure: (§1) The antibacterial activity is determined by the conventional agar dilution method, and the minimal inhibitory concentration (MIC) is expressed in mcg/ml.
(In general: Agar dilution tests growth on a series of plates holding different concentrations.)

Test [1] deals with E. coli K 12 R 118 (NPT II). As to the kind of experiment: Conventional agar dilution, MIC. The following applies: Escherichia coli. As for the experimental part: as §1
The subject of a further test is P. aeruginosa 6. As to the kind of experiment: Conventional agar dilution, MIC. The note with it: Pseudomonas aeruginosa. As for the experimental part:
as §1

Test [2] relates to Staphylococcus aureus 209 P. Nature of the test: Conventional agar dilution, MIC. The procedure: as §1
In the next test the test system is P. aeruginosa 19660. Nature of the test: Conventional agar dilution, MIC. The following applies: Pseudomonas aeruginosa. The procedure: as §1
The test system of test [3] is E. coli K 12 R 112 (NPT I). As to the kind of experiment: Conventional agar dilution, MIC. The following applies: Escherichia coli. As for the experimental part:
as §1

The next test concerns Escherichia coli K 12. As to the kind of experiment: Conventional agar dilution, MIC. The note with it: K12. The procedure:
as §1

In another test the test system is P. aeruginosa 53825. As to the kind of experiment: Conventional agar dilution, MIC. The following applies: Pseudomonas aeruginosa. The procedure:
as §1

In a further test the test system is P. aeruginosa 53585. Nature of the test: Conventional agar dilution, MIC. The note with it: Pseudomonas aeruginosa. As for the experimental part: as §1
For a further test, the system named is E. coli K 12 R 55 (GNT). Nature of the test: Conventional agar dilution, MIC. The note with it: Escherichia coli. The procedure: as §1
A further test concerns P. aeruginosa 5. Nature of the test: Conventional agar dilution, MIC. The following applies: Pseudomonas aeruginosa. As for the experimental part:
as §1

The next test concerns Proteus vulgaris. Nature of the test: Conventional agar dilution, MIC. As for the experimental part:
as §1

A further test concerns P. aeruginosa 47823. Nature of the test: Conventional agar dilution, MIC. The note with it: Pseudomonas aeruginosa. As for the experimental part: as §1
Test [4] relates to Pseudomonas aeruginosa 9229. Nature of the test: Conventional agar dilution, MIC. As for the experimental part: as §1
Another test deals with P. mirabilis V 15. As to the kind of experiment: Conventional agar dilution, MIC. The note with it: Proteus mirabilis, V15. The procedure: as §1
The next test concerns P. aeruginosa B. As to the kind of experiment: Conventional agar dilution, MIC. The following applies: Pseudomonas aeruginosa. The procedure:
as §1

For the next test, the system named is P. aeruginosa 4. As to the kind of experiment: Conventional agar dilution, MIC. The following applies: Pseudomonas aeruginosa. As for the experimental part: as §1
Another test concerns Proteus mirabilis 525. As to the kind of experiment: Conventional agar dilution, MIC. As for the experimental part:
as §1

The test system of another test is bacterial strains. As to the kind of experiment: Antibacterial "in vitro" activity, conventional agar dilution (overall). The note with it: in words, compared with neomycin B and paromomycin (1). The procedure:
as §1

In the case of `NC[C@@H]1O[C@H](O[C@H]2[C@@H](O)[C@H](O[C@@H]3[C@@H](O)[C@H](N)C[C@H](N)[C@H]3O[C@H]3O[C@H](CN)[C@@H](O)[C@H](O)[C@H]3N)O[C@@H]2CO)[C@H](N)[C@@H](O)[C@@H]1O` [Neomycin B, neomycin B], the MIC (in general, the smallest concentration in the dilution series that meets the test's criterion for growth inhibition) in the test with P. sp. V 16 is above 100 µg/mL; in test [1], 200 µg/mL (≈ 325 µM); against P. aeruginosa 6 (6) it was 25 µg/mL (≈ 40.7 µM); in test [2] (Staphylococcus aureus, 209P), 1.55 µg/mL (≈ 2.52 µM); in the test on P. aeruginosa 19660 (19660), 50 µg/mL (≈ 81.3 µM); in test [3], above 200 µg/mL. Moreover, the minimum inhibitory concentration (MIC) was 6.25 µg/mL (≈ 10.2 µM) with Escherichia coli K 12 (Escherichia coli); above 100 µg/mL in the test with P. aeruginosa 53825 (53825); above 100 µg/mL with P. aeruginosa 53585 (53585); 6.25 µg/mL (≈ 10.2 µM) with E. coli K 12 R 55 (GNT); 50 µg/mL (≈ 81.3 µM) against P. aeruginosa 5 (5); 25 µg/mL (≈ 40.7 µM) in the test on Proteus vulgaris. The minimum inhibitory concentration (MIC) in the test with P. aeruginosa 47823 (47823) was above 100 µg/mL; in test [4] (Pseudomonas aeruginosa, 9229) it was 100 µg/mL (≈ 163 µM); in the test with P. mirabilis V 15, 25 µg/mL (≈ 40.7 µM); with P. aeruginosa B, above 100 µg/mL; against P. aeruginosa 4 (4), 25 µg/mL (≈ 40.7 µM); against Proteus mirabilis 525 (Proteus mirabilis, 525), 12.5 µg/mL (≈ 20.3 µM).
For the compound `NC[C@@H]1O[C@H](O[C@H]2[C@@H](O)[C@H](O[C@@H]3[C@@H](O)[C@H](N)C[C@H](N)[C@H]3O[C@H]3O[C@H](CO)[C@@H](O)[C@H](O)[C@H]3N)O[C@@H]2CO)[C@H](N)[C@@H](O)[C@@H]1O` [Paromomycin (1), paromomycin], the minimum inhibitory concentration (MIC) in the test with P. sp. V 16 was above 100 µg/mL; in test [1], 200 µg/mL (≈ 325 µM); against P. aeruginosa 6 (6), above 100 µg/mL; in test [2] (Staphylococcus aureus, 209P) it was 1.55 µg/mL (≈ 2.52 µM); in the test with P. aeruginosa 19660 (19660) it was above 100 µg/mL; in test [3] it was above 200 µg/mL. The MIC in the test with Escherichia coli K 12 (Escherichia coli) is 12.5 µg/mL (≈ 20.3 µM); in the test with P. aeruginosa 53825 (53825), above 100 µg/mL; in the test with P. aeruginosa 53585 (53585) it was above 100 µg/mL; in the test on E. coli K 12 R 55 (GNT), 12.5 µg/mL (≈ 20.3 µM); with P. aeruginosa 5 (5), above 100 µg/mL; in the test with Proteus vulgaris, 50 µg/mL (≈ 81.2 µM). The MIC was above 100 µg/mL against P. aeruginosa 47823 (47823); above 100 µg/mL in [4] (Pseudomonas aeruginosa, 9229); 25 µg/mL (≈ 40.6 µM) against P. mirabilis V 15; above 100 µg/mL in the test with P. aeruginosa B; above 100 µg/mL with P. aeruginosa 4 (4); 25 µg/mL (≈ 40.6 µM) in the test on Proteus mirabilis 525 (Proteus mirabilis, 525).
On to `NC[C@@H]1C[C@H](O)[C@@H](N)[C@@H](O[C@H]2[C@H](O[C@@H]3O[C@H](CO)[C@@H](O[C@H]4O[C@@H](CN)[C@@H](O)[C@H](O)[C@H]4N)[C@H]3O)[C@@H](O)[C@H](N)C[C@@H]2N)O1` [compound 8, 4'-deoxyneomycin B], for which the minimum inhibitory concentration (MIC) in the test with P. sp. V 16 was above 100 µg/mL; in test [1], 25 µg/mL (≈ 41.8 µM); in the test with P. aeruginosa 6 (P. aeruginosa 6, agar dilution, read-out: MIC), 12.5 µg/mL (≈ 20.9 µM); in [2] (Staphylococcus aureus 209 P, agar dilution, read-out: MIC) it was 0.77 µg/mL (≈ 1.29 µM); with P. aeruginosa 19660 (P. aeruginosa 19660, agar dilution, read-out: MIC), 25 µg/mL (≈ 41.8 µM); in [3], above 200 µg/mL. For the same compound, the minimum inhibitory concentration (MIC) with Escherichia coli K 12 (Escherichia coli K 12, agar dilution, read-out: MIC) stood at 3.12 µg/mL (≈ 5.21 µM); with P. aeruginosa 53825 (P. aeruginosa 53825, agar dilution, read-out: MIC), 50 µg/mL (≈ 83.5 µM); in the test with P. aeruginosa 53585 (P. aeruginosa 53585, agar dilution, read-out: MIC) it was 25 µg/mL (≈ 41.8 µM); with E. coli K 12 R 55 (GNT), 3.12 µg/mL (≈ 5.21 µM); in the test on P. aeruginosa 5 (P. aeruginosa 5, agar dilution, read-out: MIC) it was 25 µg/mL (≈ 41.8 µM); in the test with Proteus vulgaris (agar dilution, read-out: MIC), 12.5 µg/mL (≈ 20.9 µM). Moreover, the MIC was 12.5 µg/mL (≈ 20.9 µM) in the test with P. aeruginosa 47823 (P. aeruginosa 47823, agar dilution, read-out: MIC); 25 µg/mL (≈ 41.8 µM) in [4] (Pseudomonas aeruginosa 9229, agar dilution, read-out: MIC); 12.5 µg/mL (≈ 20.9 µM) in the test with P. mirabilis V 15 (P. mirabilis V 15, agar dilution, read-out: MIC); 25 µg/mL (≈ 41.8 µM) in the test on P. aeruginosa B (P. aeruginosa B, agar dilution, read-out: MIC); 12.5 µg/mL (≈ 20.9 µM) in the test with P. aeruginosa 4 (P. aeruginosa 4, agar dilution, read-out: MIC); 6.2 µg/mL (≈ 10.4 µM) in the test on Proteus mirabilis 525 (Proteus mirabilis 525, agar dilution, read-out: MIC). The “antibacterial "in vitro" activity” value is “higher and broader when compared with those of neomycin B and paromomycin (1)” with bacterial strains (listed as 4'-Deoxy-neomycin B (8)); “higher and broader when compared with that of neomycin B” in the test with bacterial strains (listed as 4'-deoxy-neomycin B (8)).
